Results taken from patent US20240067617A1 (Albireo AB, priority 2022, published 2024).

Legend:
hLBAT = molecular target: T1, hLBAT (Homo sapiens, UniProt Q14973); experiment: LBAT (h/m) assay: 3H-taurocholic acid uptake in human LBAT-overexpressing cells; assay type: cell-based; settings: 0.3 μM 3H-taurocholic acid + 7.5 μM cold taurocholic acid, 20 minutes at 37° C.
T1 construct: expressed in transfected cells; kept under Geneticin selection
T1 sequence (Q14973 1-349): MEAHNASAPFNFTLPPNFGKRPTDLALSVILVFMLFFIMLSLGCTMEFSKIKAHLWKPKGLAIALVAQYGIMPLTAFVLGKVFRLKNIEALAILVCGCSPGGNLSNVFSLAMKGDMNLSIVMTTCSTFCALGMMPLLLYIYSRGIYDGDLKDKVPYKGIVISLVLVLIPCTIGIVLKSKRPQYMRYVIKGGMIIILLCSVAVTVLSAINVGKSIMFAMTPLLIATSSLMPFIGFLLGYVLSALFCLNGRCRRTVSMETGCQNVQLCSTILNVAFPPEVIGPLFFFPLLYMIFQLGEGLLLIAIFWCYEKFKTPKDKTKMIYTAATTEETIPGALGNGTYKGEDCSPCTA
Description: LBAT (h/m) Assay Protocol
20,000 cells (Human or Mouse LBAT-overexpressing cells) were seeded in 96-wells plate (Corning CLS3809) in 100 μL MEM-alpha medium (Gibco 12571-063) supplemented with 10% FBS (Gibco 10438026) containing Geneticin (Gibco 10131-027) (1 mg/mL) and incubated at 37° C. in 5% CO2 for 24 hours. After incubation, media was decanted from the wells and cells were washed two times with 300 μL of basal MEM-alpha medium (FBS-free). After decanting basal MEM-alpha medium each time, plates were tapped against paper towel to ensure maximum removal of residual media. For human LBAT, incubation mix was prepared by adding test inhibitor dilutions (3-fold serial dilution in DMSO (Sigma D2650), 10 points) in MEM-alpha (without FBS) containing 0.3 μM 3H-taurocholic acid (ARC ART-1368) and 7.5 μM cold taurocholic acid (Sigma T4009) (maintaining 0.2% final DMSO concentration). For mouse LBAT, incubation mix was prepared by adding test inhibitor dilutions (3-fold serial dilution in DMSO, 10 points) in MEM-alpha (without FBS) containing 0.3 μM 3H-taurocholic acid and 25 μM cold taurocholic acid maintaining 0.2% final DMSO concentration). 50 μL of incubation mix containing test inhibitors was then added to the wells (in duplicate) and the plates were incubated for 20 minutes in a CO2 incubator at 37° C. After incubation, the reaction was stopped by keeping the plates on ice water mix for 2-3 minutes and then the incubation mix was aspirated completely from the wells. The wells were washed two times with 250 μL of chilled unlabelled 1 mM taurocholic acid dissolved in HEPES (Gibco 15630080)-buffered (10 mM) HBSS (Gibco 14175079) (pH 7.4). The plates were tapped against a paper towel after every wash to ensure maximum removal of blocking buffer.
100 μL of MicroScint-20 (PerkinElmer 6013621) was added to the wells and kept overnight at RT before reading the plates in TopCount NXT™ Microplate Scintillation and Luminescence Counter from PerkinElmer under 3H Test protocol (set at 120 seconds reading time per well, with normal plate orientation).
(§1) Preparation of Test Compound Dilutions
(§2) All test compounds were provided in powder form at RT. 10 mM DMSO stocks of the test compounds were prepared, aliquoted and stored at −20° C. From the 10 mM DMSO stock of the compounds, a 3-fold serial dilution in DMSO was prepared to get a total of 10 dilutions of the test compounds. 0.5 μL of this dilution in DMSO was added to 250 μL of FBS-free basal media containing 3H-taurocholic acid and cold taurocholic acid to prepare the incubation mixture.

hIBAT = molecular target: T2, hIBAT (Homo sapiens, UniProt Q12908); experiment: IBAT (h/m) assay: 3H-taurocholic acid uptake in human IBAT-overexpressing cells; assay type: cell-based; settings: 0.25 μM 3H-taurocholic acid + 5 μM cold taurocholic acid, 20 minutes at 37° C., highest test concentration 10 μM
T2 construct: expressed in transfected cells; kept under Puromycin selection
T2 sequence (Q12908 1-348): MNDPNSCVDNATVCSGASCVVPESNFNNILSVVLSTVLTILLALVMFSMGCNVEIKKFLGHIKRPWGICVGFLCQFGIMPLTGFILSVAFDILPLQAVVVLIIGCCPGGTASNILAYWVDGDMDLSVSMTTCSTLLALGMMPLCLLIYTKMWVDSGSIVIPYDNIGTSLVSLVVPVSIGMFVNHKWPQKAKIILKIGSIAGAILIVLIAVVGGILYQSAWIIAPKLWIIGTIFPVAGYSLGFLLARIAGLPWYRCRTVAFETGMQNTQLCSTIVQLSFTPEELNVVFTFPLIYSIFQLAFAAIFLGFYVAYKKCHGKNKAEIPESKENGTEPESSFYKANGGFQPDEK
Description: IBAT (h/m) Assay Protocol
10,000 cells (Human or Mouse IBAT-overexpressing cells) were seeded in 96-wells plate (Corning CLS3809) in 200 μL MEM-alpha medium (Gibco 12571-063) supplemented with 10% FBS (Gibco 10438026) containing Puromycin (Gibco A1113803) (10 μg/mL) and incubated at 37° C. in 5% CO2 for 48 hours. After incubation, media was decanted from the wells and cells were washed two times with 300 μL of basal MEM-alpha medium (FBS-free). After decanting basal MEM-alpha medium each time, plates were tapped against paper towel to ensure maximum removal of residual media. Test inhibitor dilutions (highest test concentration being 10 μM, 3-fold serial dilution, 10 points) prepared in DMSO (Sigma D2650) were added in incubation mix (maintaining 0.2% final DMSO concentration) containing 0.25 μM 3H-taurocholic acid (ARC ART-1368) and 5 μM of cold taurocholic acid (Sigma T4009). 50 μL of incubation mix containing test inhibitors was then added to the wells (in duplicate) and the plates were incubated for 20 minutes in a CO2 incubator at 37° C. After incubation, the reaction was stopped by keeping the plates on ice water mix for 2-3 minutes and then the incubation mix was aspirated completely from the wells. The wells were washed two times with 250 μL of chilled unlabelled 1 mM taurocholic acid dissolved in HEPES (Gibco 15630080)-buffered (10 mM) HBSS (Gibco 14175079) (pH 7.4). The plates were tapped against a paper towel after every wash to ensure maximum removal of blocking buffer.
100 μL of MicroScint-20 (PerkinElmer 6013621) was added to the wells and kept overnight at RT before reading the plates in TopCount NXT™ Microplate Scintillation and Luminescence Counter from PerkinElmer under 3H Test protocol (set at 120 seconds reading time per well).
as §1, §2

SMILES | IC50 (hLBAT) | IC50 (hIBAT)
CCCCC1CN(c2ccccc2)c2cc(OC)c(CSCC(=O)O)cc2S(=O)(=O)N1C (single isomer, unassigned) [36, enantiomer 2] | 155 nM | 2750 nM
CCCCC1CN(c2ccccc2)c2cc(OC)c(CSC(C)(C)C(=O)O)cc2S(=O)(=O)N1C (single isomer, unassigned) [38, enantiomer 1] | 1130 nM | > 10000 nM
CCCCC1CN(c2ccccc2)c2cc(OC)c(CSC(C)(C)C(=O)O)cc2S(=O)(=O)N1C (single isomer, unassigned) [38, enantiomer 2] | 6.6 nM | 1600 nM
CCCCC1(CC)CN(c2ccc(F)cc2)c2cc(OC)c(CSCC(=O)O)cc2S(=O)(=O)C1 (single isomer, unassigned) [40, enantiomer 1] | > 10000 nM | 1.4 nM
CCCCC1(CC)CN(c2ccc(F)cc2)c2cc(OC)c(CSCC(=O)O)cc2S(=O)(=O)C1 (single isomer, unassigned) [40, enantiomer 2] | > 10000 nM | 36 nM
CCCCC1(C)CN(c2ccccc2)c2cc(OC)c(CSC(C)(C)C(=O)O)cc2S(=O)(=O)C1 (single isomer, unassigned) [42, enantiomer 1] | 223 nM | 704 nM
CCCCC1(C)CN(c2ccccc2)c2cc(OC)c(CSC(C)(C)C(=O)O)cc2S(=O)(=O)C1 (single isomer, unassigned) [42, enantiomer 2] | 241 nM | > 10000 nM
CCCCC1(CC)CN(c2ccccc2)c2cc(OC)c(CSCC(=O)O)cc2S(=O)(=O)N1 (single isomer, unassigned) [45, enantiomer 1] | > 1000 nM | 28 nM
CCCCC1(CC)CN(c2ccccc2)c2cc(S(C)(=O)=O)c(CSCC(=O)O)cc2S(=O)(=O)N1 (single isomer, unassigned) [48, enantiomer 1] | > 1000 nM | 231 nM
CCCCC1(CC)CN(c2ccccc2)c2cc(S(C)(=O)=O)c(CSCC(=O)O)cc2S(=O)(=O)N1 (single isomer, unassigned) [48, enantiomer 2] | > 1000 nM | 5.8 nM
CCCCC1(CCCC)CN(c2ccccc2)c2cc(SC)c(CSCC(=O)O)cc2S(=O)(=O)C1 [Example 3, 2-(((3,3-dibutyl-7-(methylthio)-1,1-dioxido-5-phenyl-2,3,4,5-tetrahydro-1,5-benzothiazepin-8-yl)methyl)thio)acetic acid] | 3370 nM | 1.7 nM
CCCCC1(CCCC)CN(c2ccccc2)c2cc(SC)c(CSCC(=O)O)cc2S(=O)(=O)N1 [Example 8, 2-(((3,3-dibutyl-7-(methylthio)-1,1-dioxido-5-phenyl-2,3,4,5-tetrahydro-1,2,5-benzothiadiazepin-8-yl)methyl)thio)acetic acid] | > 3330 nM | 0.8 nM
CCCCC1(CCCC)CN(c2ccccc2)c2cc(SC)c(CSC(C)(C)C(=O)O)cc2S(=O)(=O)C1 [Example 17, 2-(((3,3-Dibutyl-7-(methylthio)-1,1-dioxido-5-phenyl-2,3,4,5-tetrahydro-1,5-benzothiazepin-8-yl)methyl)thio)-2-methylpropanoic acid] | 216 nM | 88 nM
CCCCC1(CC)CN(c2ccccc2)c2cc(SC)c(CSCC(=O)O)cc2S(=O)(=O)N1C (stereo not drawn) [Example 20, 2-(((3-Butyl-3-ethyl-2-methyl-7-(methylthio)-1,1-dioxido-5-phenyl-2,3,4,5-tetrahydro-1,2,5-benzothiadiazepin-8-yl)methyl)thio)acetic acid] | 2510 nM | 522 nM
CCCCC1(CCCC)CN(c2ccccc2)c2cc(SC)c(CSCC(=O)O)cc2S(=O)(=O)N1C [Example 22, 2-(((3,3-dibutyl-2-methyl-7-(methylthio)-1,1-dioxido-5-phenyl-2,3,4,5-tetrahydro-1,2,5-benzothiadiazepin-8-yl)methyl)thio)acetic acid] | > 3330 nM | 900 nM
CCCCC1(CCCC)CN(c2ccccc2)c2cc(SC)c(CSC(C)(C)C(=O)O)cc2S(=O)(=O)N1C [Example 23, 2-(((3,3-dibutyl-2-methyl-7-(methylthio)-1,1-dioxido-5-phenyl-2,3,4,5-tetrahydro-1,2,5-benzothiadiazepin-8-yl)methyl)thio)-2-methylpropanoic acid] | 145 nM | > 3330 nM
CCCCC1(CC)CN(c2ccccc2)c2cc(SC)c(CSC(C)(C)C(=O)O)cc2S(=O)(=O)N1C (stereo not drawn) [Example 24] | 85 nM | > 3330 nM
CCCCC1(CCCC)CN(c2ccccc2)c2cc(OC)c(CSCC(=O)O)cc2S(=O)(=O)C1 [Example 31, 2-(((3,3-dibutyl-7-methoxy-1,1-dioxido-5-phenyl-2,3,4,5-tetrahydro-1,5-benzothiazepin-8-yl)methyl)thio)acetic acid] | > 3330 nM | 1.3 nM
CCCCC1(CCCC)CN(c2ccc(F)cc2)c2cc(OC)c(CSCC(=O)O)cc2S(=O)(=O)C1 [Example 32, 2-(((3,3-dibutyl-5-(4-fluorophenyl)-7-methoxy-1,1-dioxido-2,3,4,5-tetrahydro-1,5-benzothiazepin-8-yl)methyl)thio)acetic acid] | > 3330 nM | 0.6 nM
CCCCC1(CCCC)CN(c2ccccc2)c2cc(OC)c(CSC(C)(C)C(=O)O)cc2S(=O)(=O)C1 [Example 43, 2-(((3,3-dibutyl-7-methoxy-1,1-dioxido-5-phenyl-2,3,4,5-tetrahydro-1,5-benzothiazepin-8-yl)methyl)thio)-2-methylpropanoic acid] | 251 nM | 861 nM
CCCCC1(CC)CN(c2ccccc2)c2cc(N(C)C)c(CSCC(=O)O)cc2S(=O)(=O)N1 (stereo not drawn) [Example 46, 2-(((3-butyl-7-(dimethylamino)-3-ethyl-1,1-dioxido-5-phenyl-2,3,4,5-tetrahydro-1,2,5-benzothiadiazepin-8-yl)methyl)thio)acetic acid] | > 1000 nM | 4.8 nM
